Among the data in paper PMC6092189 (Nature structural & molecular biology, 2018) are Kd values, retold here.

For the assay, the target named is human β-cardiac myosin (Homo sapiens, UniProt P12883). The assay is described as follows: single-molecule harmonic force spectroscopy dose titration. The format is binding.
human β-cardiac myosin, sequence (P12883 1-808): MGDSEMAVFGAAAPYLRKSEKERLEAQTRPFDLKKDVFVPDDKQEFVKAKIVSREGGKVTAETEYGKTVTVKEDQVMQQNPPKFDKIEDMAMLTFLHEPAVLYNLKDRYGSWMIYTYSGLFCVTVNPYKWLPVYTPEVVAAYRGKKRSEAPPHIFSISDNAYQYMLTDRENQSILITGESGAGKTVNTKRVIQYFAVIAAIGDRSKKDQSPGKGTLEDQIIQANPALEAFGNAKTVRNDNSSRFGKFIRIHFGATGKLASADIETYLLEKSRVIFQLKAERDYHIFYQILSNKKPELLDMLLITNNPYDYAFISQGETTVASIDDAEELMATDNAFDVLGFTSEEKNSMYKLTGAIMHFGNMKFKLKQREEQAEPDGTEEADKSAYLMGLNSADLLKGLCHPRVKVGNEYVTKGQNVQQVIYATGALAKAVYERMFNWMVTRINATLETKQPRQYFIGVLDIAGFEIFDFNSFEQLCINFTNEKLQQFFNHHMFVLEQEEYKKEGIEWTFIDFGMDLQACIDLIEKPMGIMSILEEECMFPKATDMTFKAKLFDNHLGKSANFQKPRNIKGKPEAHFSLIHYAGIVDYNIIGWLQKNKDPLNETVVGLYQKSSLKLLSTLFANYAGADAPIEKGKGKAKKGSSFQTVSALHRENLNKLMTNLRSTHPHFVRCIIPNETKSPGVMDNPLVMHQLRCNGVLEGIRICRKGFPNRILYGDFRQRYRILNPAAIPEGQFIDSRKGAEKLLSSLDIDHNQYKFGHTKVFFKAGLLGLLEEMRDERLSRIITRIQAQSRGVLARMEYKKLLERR
human β-cardiac myosin, sequence (P08590 2-195 partner): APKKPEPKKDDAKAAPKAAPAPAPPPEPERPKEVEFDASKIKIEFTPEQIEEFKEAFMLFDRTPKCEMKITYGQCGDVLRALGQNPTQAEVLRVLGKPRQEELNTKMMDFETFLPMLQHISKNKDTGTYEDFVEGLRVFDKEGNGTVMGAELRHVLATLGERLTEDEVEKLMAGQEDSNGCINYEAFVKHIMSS

Consider `COC(=O)N1CCN(Cc2cccc(NC(=O)Nc3ccc(C)nc3)c2F)CC1` [OM, omecamtiv mecarbil], for which the dissociation constant (Kd) (in general, the free concentration of one partner at which half of the binding sites on the other are occupied at equilibrium, for simple one-to-one binding) was determined as 310 ± 50 nM.
